# Legend:
# [1] = test system: thrombin induced platelet aggregation in rats; assay: Thrombin induced rat platelet aggregation after 15 days gavage; format: in vivo; conditions: SD rats, 6.75 mg/kg by gavage for 15 days
# Text: Platelet aggregation rate is a detection index of platelet function. The higher the platelet aggregation rate, the greater the possibility of thrombosis. In arteriosclerosis, coronary heart disease, cerebral infarction, hypertension, diabetes and other thrombotic diseases, platelet aggregation rate is often increased. […] Therefore, the determination of platelet aggregation rate can be used to observe the curative effect and screen drugs. In this study, thrombin induced rat platelet aggregation model was used to evaluate the inhibitory effect of the traditional Chinese medicine composition on platelet aggregation. […]
# After the last administration, 3% Pentobarbital Sodium was injected intraperitoneally for anesthesia (40 mg/kg). […] After 10 minutes of centrifugation at 800 rpm, the upper platelet rich plasma (PRP) was aspirated and the number of platelets was counted. […]
# A small magnetic rod and 300 μl PRP were added into a square cup, which was preheated for 5 minutes in a constant temperature hole, and 300 μl PPP was added into another square cup. […] The maximum platelet aggregation rate was measured, wherein 3-4 parallel tests were performed for each blood sample and the average value was taken.
# [2] = test system: arteriovenous bypass thrombosis in rats; assay: Arteriovenous bypass thrombosis in rats; format: in vivo; conditions: SD rats, 6.75 mg/kg by gavage for 15 days
# Experimental: After 5 days of adaptive feeding, the animals were randomly divided into blank control group, positive control group (Plavix group, 6.75 mg/kg), and four test substance groups (100, 200, 400 and 800 mg/kg), with 20 rats in each group. The animals were administered by gavage for 15 consecutive days, once a day.
# After the last administration, 3% Pentobarbital Sodium was injected intraperitoneally for anesthesia (40 mg/kg). The right common carotid artery and left external jugular vein were separated. A 6 cm long medical surgical suture (No. 0) was placed in the middle of a polyethylene tube, which was filled with normal saline and inserted into the right common carotid artery and the left external jugular vein respectively to form an arteriovenous vascular loop. After 15 minutes, the blood flow was cut off, and the suture was taken out and weighed.
# In this experiment, the classical rat arteriovenous bypass was used to form the bypass arteriovenous blood flow. When the platelets in the arterial blood flow contact the rough surface of the suture, they adhere to the suture, and the platelet aggregation forms platelet thrombosis around the surface of the suture. When platelet adhesion and aggregation function is inhibited, the weight of thrombosis become smaller. Therefore, the adhesion and aggregation function of platelets can be measured by thrombus weight.
structure (smiles),measurement,setting,value
"COC(=O)[C@H](c1ccccc1Cl)N1CCc2sccc2C1 [Plavix, Clopidogrel Hydrogen Sulphate]",Maximum platelet aggregation rate,[1],35.8±29.7%
same,Net weight of suture,[2],20.2 ± 4.8 mg

# Reference: patent US11369653B2, “Traditional Chinese medicine composition for treating cardiovascular and cerebrovascular disease, preparation method therefor and use thereof” (priority 2018, dated 2022)
